Reference: the CheMixHub viscosity set

Assay: xn = mol fraction of the nth substance listed

C1=C[C@H]2[C@@H](C1)[C@H]1C=C[C@@H]2C1 + CC(C)O
viscosity [mPa·s], 101.2 kPa
Settings | x1 = 0.1015 | x1 = 0.1993 | x1 = 0.2999 | x1 = 0.4006 | x1 = 0.4998 | x1 = 0.5999 | x1 = 0.6977 | x1 = 0.7999 | x1 = 0.8995
293.15 K | 2.227 | 2.228 | 2.271 | 2.356 | 2.481 | 2.69 | 2.944 | 3.291 | 3.718
303.15 K | 1.69 | 1.7 | 1.737 | 1.811 | 1.918 | 2.09 | 2.314 | 2.581 | 2.919
313.15 K | 1.303 | 1.322 | 1.363 | 1.435 | 1.535 | 1.689 | 1.869 | 2.109 | 2.394

C1COCCO1 + CCC(C)O
298.15 K, 101 kPa
Settings | viscosity [mPa·s]
x1 = 0.0413 | 2.47
x1 = 0.1256 | 1.88
x1 = 0.236 | 1.474
x1 = 0.3042 | 1.324
x1 = 0.4175 | 1.173
x1 = 0.5 | 1.133
x1 = 0.5207 | 1.092
x1 = 0.5916 | 1.061
x1 = 0.7413 | 1.046
x1 = 0.8431 | 1.071
x1 = 0.9423 | 1.119

Brc1ccccc1 + C1CCOC1
viscosity [mPa·s], 101 kPa
Settings | x2 = 0.1051 | x2 = 0.2012 | x2 = 0.3022 | x2 = 0.4031 | x2 = 0.4987
298.15 K | 1.014 | 0.9619 | 0.9067 | 0.8488 | 0.7916
313.15 K | 0.8409 | 0.8 | 0.7551 | 0.7079 | 0.6622

OCC(F)(F)F + CCO
viscosity [mPa·s]
Settings | 298.15 K | 303.15 K | 308.15 K | 313.15 K | 318.15 K | 323.15 K
100 kPa, x1 = 0.1081 | 1.09 | 1 | 0.92 | 0.84 | 0.77 | 0.71
100 kPa, x1 = 0.2039 | 1.09 | 0.99 | 0.91 | 0.83 | 0.76 | 0.7
100 kPa, x1 = 0.304 | 1.1 | 0.99 | 0.91 | 0.83 | 0.76 | 0.7
100 kPa, x1 = 0.3989 | 1.12 | 1.01 | 0.92 | 0.84 | 0.77 | 0.7
100 kPa, x1 = 0.508 | 1.16 | 1.05 | 0.95 | 0.86 | 0.79 | 0.72
100 kPa, x1 = 0.601 | 1.22 | 1.1 | 0.99 | 0.9 | 0.82 | 0.75
100 kPa, x1 = 0.7087 | 1.31 | 1.18 | 1.06 | 0.96 | 0.87 | 0.79
100 kPa, x1 = 0.7984 | 1.4 | 1.26 | 1.12 | 1.02 | 0.92 | 0.83
100 kPa, x1 = 0.9032 | 1.56 | 1.38 | 1.23 | 1.11 | 0.99 | 0.9
101 kPa, x1 = 0.01998 | 1.104 | – | – | – | – | –
101 kPa, x1 = 0.0384 | 1.102 | – | – | – | – | –
101 kPa, x1 = 0.05967 | 1.098 | – | – | – | – | –
101 kPa, x1 = 0.1122 | 1.097 | – | – | – | – | –
101 kPa, x1 = 0.1523 | 1.089 | – | – | – | – | –
101 kPa, x1 = 0.2584 | 1.082 | – | – | – | – | –
101 kPa, x1 = 0.3059 | 1.105 | – | – | – | – | –
101 kPa, x1 = 0.5638 | 1.215 | – | – | – | – | –
101 kPa, x1 = 0.8074 | 1.427 | – | – | – | – | –

O=C1CCCO1 + O
viscosity [mPa·s]
Settings | 298.15 K | 303.15 K | 308.15 K | 313.15 K | 318.15 K | 323.15 K
101 kPa, x1 = 0.0503 | 1.233 | 1.096 | 0.9821 | 0.8569 | 0.8041 | –
101 kPa, x1 = 0.0995 | 1.481 | 1.312 | 1.171 | 1.031 | 0.9551 | –
101 kPa, x1 = 0.1997 | 1.783 | 1.577 | 1.407 | 1.248 | 1.143 | –
101 kPa, x1 = 0.2994 | 1.896 | 1.686 | 1.509 | 1.346 | 1.232 | –
101 kPa, x1 = 0.3997 | 1.915 | 1.711 | 1.538 | 1.379 | 1.266 | –
101 kPa, x1 = 0.499 | 1.875 | 1.688 | 1.528 | 1.379 | 1.273 | –
101 kPa, x1 = 0.5994 | – | 1.637 | 1.493 | 1.356 | 1.26 | –
101 kPa, x1 = 0.701 | 1.754 | 1.603 | 1.471 | 1.343 | 1.255 | –
101 kPa, x1 = 0.7995 | 1.716 | 1.578 | 1.457 | 1.337 | 1.256 | –
101 kPa, x1 = 0.8996 | 1.697 | 1.569 | 1.457 | 1.343 | 1.267 | –
101 kPa, x2 = 0.3 | 1.645 | – | – | – | – | –
101 kPa, x2 = 0.9 | 1.385 | – | – | – | – | –
101.33 kPa, x2 = 0.0898 | – | 1.56 | – | 1.339 | – | 1.163
101.33 kPa, x2 = 0.2337 | – | 1.595 | – | 1.349 | – | 1.159
101.33 kPa, x2 = 0.6207 | – | 1.674 | – | 1.349 | – | 1.112
101.33 kPa, x2 = 0.9031 | – | 1.257 | – | 1.005 | – | 0.8246

CCCCCC(=O)[O-].C[NH2+]c1ccccc1 + CN(C)C=O
viscosity [mPa·s], 101 kPa
Settings | x1 = 0.004889 | x1 = 0.008423 | x1 = 0.01411 | x1 = 0.01792 | x1 = 0.02131 | x1 = 0.02717 | x1 = 0.0305 | x1 = 0.03458
293.15 K | 0.957 | 0.969 | 0.992 | 1.009 | 1.026 | 1.052 | 1.072 | 1.099
298.15 K | 0.916 | 0.926 | 0.946 | 0.961 | 0.975 | 0.998 | 1.016 | 1.038
303.15 K | 0.879 | 0.887 | 0.905 | 0.918 | 0.93 | 0.95 | 0.966 | 0.985
308.15 K | 0.846 | 0.854 | 0.869 | 0.881 | 0.891 | 0.909 | 0.923 | 0.94
313.15 K | 0.817 | 0.824 | 0.837 | 0.847 | 0.857 | 0.873 | 0.884 | 0.899
318.15 K | 0.791 | 0.797 | 0.809 | 0.818 | 0.826 | 0.84 | 0.85 | 0.863
323.15 K | 0.767 | 0.772 | 0.784 | 0.791 | 0.798 | 0.812 | 0.82 | 0.831
